# Source: patent US20180051257A1, “METHODS FOR GENERATING ALVEOLAR TYPE II CELLS” (priority 2016, published 2018)
# What was measured:
# RB20 mESCs [1] = assay: Foxa2 protein expression in mESC-derived DE cells by flow cytometric analysis; assay type: cell-based, mouse; conditions: mESC-derived DE cells vs mESCs
# Source text: (§1) To produce endoderm (DE) like cells, RB20 mESCs (embryonic stem cells) were maintained in adherent culture conditions on gelatin-coated dishes, prior to induction of differentiation. As depicted in FIG. 2, an overview of the mESCs maintenance and differentiation protocol. Differentiation of the cells was initiated via a reduction in concentration of KoSR; after three days, cells were induced by IDE2 for six days. In the next step, DE cells differentiated into alveolar type II-like (AT II-like) cells using seven different combinations of three inductive factors: FGF2 (F), hydrocortisone (H) and A549 conditioned medium (CM) during 9 days. The mESCs were cultured in media with reducing concentration of serum for 3 days, for example, 20%, 10% and 5% fetal bovine serum (FBS) in day one, two and three, respectively. Then, it was induced by 200 nM small inducing molecule IDE2 for 6 days. At the end of this first step, DE like cells were characterized for the expression of two DE markers, Sox17 and Foxa2.
# Lack of expression of Foxa2 could be seen in mESC cells.
# RB20 mESCs [2] = assay: Induction of mESCs to definitive endoderm (DE)-like cells by IDE2: RT-PCR of DE markers and phase contrast morphology; assay type: cell-based, mouse
# Source text: as §1
# The morphology of the said markers in the DE-like cells was assayed by phase contrast microscopy.
# [3] = 200 nM IDE2, day 6, compared to mESCs negative control group, P<0.05
smiles,measurement,setting,value
O=C(O)CCCCCC(=O)NN=C1CCCC1 [IDE2],numbers of cells that expressed DE-specific marker Foxa2 at the protein level,RB20 mESCs [1],increase in numbers of cells
same,expression level of Foxa2 (RT-PCR),RB20 mESCs [2]; [3],increased expression levels
same,expression level of Sox 17 (RT-PCR),RB20 mESCs [2]; [3],increased expression levels
same,cell morphology in phase contrast micrograph,RB20 mESCs [2]; day 6 of IDE2 induction,epithelial morphology characteristic of DE cells
